In patent US20040152746A1, “Treatment of scarring and related conditions using ppar-gamma activators” (priority 2001, published 2004):
Marks after values point to notes of the source that are not given here.

Tested on: Human dermal fibroblasts differentiated to myofibroblasts with TGF-beta1
Assay: Myofibroblast number after treatment with pioglitazone (alpha-smooth muscle actin immunohistochemistry)
Assay type: cell-based
Settings: 3 days differentiation medium with 1 ng/ml TGF-beta1, % positive cells/total cells, control 3.47
Protocol: Human dermal fibroblasts were cultured on sterile cover-slips and allowed to adhere for 24 hours in fibroblast medium, i.e. (1.0 ml L-Glutamine (200 mM; Gibco), 1.0 ml non-essential amino acids, NEAA(100×; Gibco), 1.0 ml penicillin/streptomycin (100×Gibco), 10 ml new-born calf serum, NBCS (Gibco), 87 ml Dulbecco's modified Eagle's Medium, DMEM (Gibco)). At confluence, the medium was changed to myofibroblast differentiation medium, i.e. 1.0 ml L-Glutamine (200 mM; Gibco), 1.0 ml non-essential amino acids, NEAA(100×; Gibco), 10 ml penicillin/streptomycin (100×Gibco), 1 ml ITS (Insulin, Transferrin, Selenium)(100×Gibco)) supplemented with 1 ng/ml TGF-beta1 (Sigma). Myofibroblast differentiation was allowed to proceed for 3 days either in the presence of variable concentrations of pioglitazone or without. Myofibroblast number was determined by immunohistochemistry according to the following protocol. Cells were washed in phosphate buffered saline (PBS), then fixed in 3% paraformaldehyde for 5 mins followed by quenching in 50 mM ammonium chloride. The cells were then washed and permeabilised with 0.2% Triton X-100 in PBS. All antibodies were diluted into 0.2% fish skin gelatin (FSG) (Sigma). Prior to antibody detection non-specific binding was blocked using 0.2% FSG in PBS. Mouse anti-human alpha-smooth muscle actin (Sigma) was diluted 1:100 and incubated with the cells for 45 mins followed by washing. Rabbit anti-mouse immunoglobulin horseradish-peroxidase secondary antibody was incubated for 30 mins. Visualisation used Fast-DAB (Sigma) according to manufacturer's instructions. Cells were counterstained with haemotoxylin. […] Haemotoxylin stained nuclei were counted by the software using size-exclusion parameters which excluded small and large debris. Accuracy was determined within the software using binary overlays of the counted objects to examine if any non-nuclei counts occurred or if any nuclei were missed. […] DAB positive cells were counted by hand on the captured images. Counts are expressed as % positive cells/total cells.

In the case of CCc1ccc(CCOc2ccc(CC3SC(=O)NC3=O)cc2)nc1 (stereo not drawn) [pioglitazone], the “% Myofibroblasts” value (0.1 μM pioglitazone, p < 0.05) is reported as 1.81* %, the “% Myofibroblasts” value (1 μM pioglitazone, p < 0.005) is reported as 0.71** % and the “% Myofibroblasts” value (10 μM pioglitazone, p < 0.005) is reported as 0.10** %.
